{"source": "patent US11371055B2", "about": "“Herbicide resistance genes” (CORTEVA AGRISCIENCE LLC, priority 2005, dated 2022)", "key": {"[1]": {"system": "untransformed commercial rice cultivar Lamont", "experiment": "2,4-D DMA tolerance, untransformed rice control", "assay_type": "in vivo, Oryza sativa", "settings": "Lemont Untransformed Control", "source_text": "The following T1 AAD-12 (v1) single segregating locus lines were planted into 3-inch pots containing Metro Mix media: pDAB4101(20)003 and pDAB4101(27)002. At 2-3 leaf stage were sprayed with 140 g ae/ha imazethapyr. Nulls were eliminated and individuals were sprayed at V3-V4 stage in the track sprayer set to 187 L/ha at 1120, 2240 or 4480 g ac/ha 2,4-D DMA (2×, 4×, and 8× typical commercial use rates, respectively). Plants were graded at 7 and 14 DAT and compared to untransformed commercial rice cultivar. ‘Lamont,’ as negative control plants."}, "[2]": {"system": "Untransformed Control corn", "experiment": "Herbicide tolerance of untransformed control corn in the F1 stack test", "assay_type": "in vivo, Zea mays", "settings": "1120 g ae/ha 2,4-D DMA", "source_text": "(§1) AAD-12 (v1) (pDAB4101) and elite Roundup Ready inbred (BE1146RR) were reciprocally crossed and F1 seed was collected. The seed from two F1 lines were planted and treated with 70 g ae/ha imazethapyr at the V2 stage to eliminate nulls. To the surviving plants, reps were separated and either treated with 1120 g ae/ha 2,4-D DMA+70 g ae/ha imazethapyr (to confirm presence of AHAS gene) or 1120 g ae/ha 2,4-D DMA+1680 g ae/ha glyphosate (to confirm the presence of the Round Up Ready gene) in a track sprayer calibrated to 187 L/ha. Plants were graded 3 and 16 DAT."}, "[3]": {"system": "F1 stack of AAD-12 (v1) (pDAB4101) and BE1146RR corn", "experiment": "Herbicide tolerance of F1 stack AAD-12 (v1) x BE1146RR corn", "assay_type": "in vivo, Zea mays", "settings": "1120 g ae/ha 2,4-D DMA", "source_text": "as §1"}, "[4]": {"system": "AAD-12 (v1)-containing T0 soybean plants", "experiment": "2,4-D spray application on T0 soybean", "assay_type": "in vivo, Glycine max", "source_text": "Plants that are transferred to the greenhouse can be assayed for the presence of an active PAT gene further with a non-destructive manner by painting a section of leaf of the T0 primary transformant, or progeny thereof, with a glufosinate solution [0.05-2% v/v Liberty Herbicide, preferably 0.25-1.0% (v/v),=500-2000 ppm glufosinate, Bayer Crop Science]. Depending on the concentration used, assessment for glufosinate injury can be made 1-7 days after treatment. Plants can also be tested for 2,4-D tolerance in a non-destructive manner by selective application of a 2,4-D solution in water (0.25-1% v/v commercial 2,4-D dimethylamine salt formulation, preferably 0.5% v/v=2280 ppm 2,4-D ae) to the terminal leaflet of the newly expanding trifoliolate one or two, preferably two, nodes below the youngest emerging trifolioate. This assay allows assessment of 2,4-D sensitive plants 6 hours to several days after application by assessment of leaf flipping or rotation >90 degrees from the plane of the adjacent leaflets. Plants tolerant to 2,4-D will not respond to 2,4-D. To plants will be allowed to self fertilize in the greenhouse to give rise to T1 seed. T1 plants (and to the extent enough T0 plant clones are produced) will be sprayed with a range of herbicide doses to determine the level of herbicide protection afforded by AAD-12 (v1) and PAT genes in transgenic soybean. Rates of 2,4-D used on T0 plants will typically comprise one or two selective rates in the range of 100-1120 g ae/ha using a track sprayer as previously described. T1 plants will be treated with a wider herbicide dose ranging from 50-3200 g ae/ha 2,4-D. Likewise, T0 and T1 plants can be screened for glufosinate resistance by postemergence treatment with 200-800 and 50-3200 g ae/ha glufosinate, respectively. Glyphosate resistance (in plants transformed with constructs that contain EPSPS) or another glyphosate tolerance gene can be assessed in the T1 generation by postemergence applications of glyphosate with a dose range from 280-2240 g ae/ha glyphosate. Analysis of protein expression will occur as described in below. Individual T0 plants were assessed for the presence of the coding region of the gene of interest (AAD-12 (v1) or PAT v6) and copy number. Determination of the inheritance of AAD-12 (v1) will be made using T1 and T2 progeny segregation with respect to herbicide tolerance as described in previous examples. […]"}, "T1 AAD-1 (v3) tobacco": {"system": "T1 AAD-1 (v3) tobacco", "experiment": "Elevated 2,4-D DMA rates in greenhouse tobacco, AAD-1", "assay_type": "in vivo, Nicotiana tabacum", "source_text": "T1 AAD-12 (v1) plants from an event segregating 3R:1S when selected with 560 g ai/ha Liberty using the same protocol as previously described. T1 AAD-1 (v3) seed was also planted for transformed tobacco controls (see PCT/US2005/014737). Untransformed KY160 was served as the sensitive control. Plants were sprayed using a track sprayer set to 187 L/ha at 140, 560, 2240, 8960, and 35840 g ae/ha 2,4-D DMA and rated 3 and 14 DAT."}, "[5]": {"settings": "event D-2-14 (pDAB4464, CsVMV), spray POST over the top 560 g ae/ha 2,4-D"}, "[6]": {"settings": "event D-3-5 (pDAB4468, AtUbi10), spray POST over the top 560 g ae/ha 2,4-D"}, "[7]": {"settings": "event D-3-6 (pDAB4468, AtUbi10), spray POST over the top 560 g ae/ha 2,4-D"}, "[8]": {"settings": "event D-3-9 (pDAB4468, AtUbi10), spray POST over the top 1120 g ae/ha 2,4-D"}, "[9]": {"settings": "event D-4-17 (pDAB4468, AtUbi10), spray POST over the top 1120 g ae/ha 2,4-D"}, "[10]": {"settings": "event D-5-2 (pDAB4472, AtUbi3), spray POST over the top 560 g ae/ha 2,4-D"}}, "data": [{"smiles": "CNC.O=C(O)COc1ccc(Cl)cc1Cl", "note": "[2,4-D DMA]", "values": [{"measurement": "Average % injury 14 DAT", "setting": "[1]; 1120 g ae/ha", "value": 20, "unit": "%"}, {"measurement": "Average % injury 14 DAT", "setting": "[1]; 2240 g ae/ha", "value": 35, "unit": "%"}, {"measurement": "Average % injury 14 DAT", "setting": "[1]; 4480 g ae/ha", "value": 50, "unit": "%"}, {"measurement": "Average % Injury 16DAT", "setting": "[2]", "value": 21, "unit": "%"}, {"measurement": "Average % Injury 16DAT", "setting": "[3]; AAD-12 (v1) pDAB4101(0)003.R003.AF", "value": 0, "unit": "%"}, {"measurement": "Average % Injury 16DAT", "setting": "[3]; AAD-12 (v1) pDAB4101(0)005.R001.AF", "value": 0, "unit": "%"}]}, {"smiles": "O=C(O)COc1ccc(Cl)cc1Cl", "note": "[2,4-D, 2,4-dichlorophenoxyacetic acid]", "values": [{"measurement": "response to herbicide spray application", "setting": "[4]; 560 or 1120 g ae 2,4-D", "value": "clearly resistant"}, {"measurement": "% injury 2 DAT", "setting": "[4]; [5]", "value": 0, "unit": "%"}, {"measurement": "% injury 7 DAT", "setting": "[4]; [5]", "value": 0, "unit": "%"}, {"measurement": "% injury 14 DAT", "setting": "[4]; [5]", "value": 0, "unit": "%"}, {"measurement": "% injury 2 DAT", "setting": "[4]; [6]", "value": 0, "unit": "%"}, {"measurement": "% injury 7 DAT", "setting": "[4]; [6]", "value": 0, "unit": "%"}, {"measurement": "% injury 14 DAT", "setting": "[4]; [6]", "value": 0, "unit": "%"}, {"measurement": "% injury 2 DAT", "setting": "[4]; [7]", "value": 0, "unit": "%"}, {"measurement": "% injury 7 DAT", "setting": "[4]; [7]", "value": 0, "unit": "%"}, {"measurement": "% injury 14 DAT", "setting": "[4]; [7]", "value": 0, "unit": "%"}, {"measurement": "% injury 2 DAT", "setting": "[4]; [8]", "value": 0, "unit": "%"}, {"measurement": "% injury 7 DAT", "setting": "[4]; [8]", "value": 0, "unit": "%"}, {"measurement": "% injury 14 DAT", "setting": "[4]; [8]", "value": 0, "unit": "%"}, {"measurement": "% injury 2 DAT", "setting": "[4]; [9]", "value": 5, "unit": "%"}, {"measurement": "% injury 7 DAT", "setting": "[4]; [9]", "value": 0, "unit": "%"}, {"measurement": "% injury 14 DAT", "setting": "[4]; [9]", "value": 0, "unit": "%"}, {"measurement": "% injury 2 DAT", "setting": "[4]; [10]", "value": 5, "unit": "%"}, {"measurement": "% injury 7 DAT", "setting": "[4]; [10]", "value": 0, "unit": "%"}, {"measurement": "% injury 14 DAT", "setting": "[4]; [10]", "value": 0, "unit": "%"}, {"measurement": "Average % injury 14 DAT", "setting": "T1 AAD-1 (v3) tobacco; 2240 g ae/ha 2,4-D", "value": 4, "unit": "%"}, {"measurement": "Average % injury 14 DAT", "setting": "T1 AAD-1 (v3) tobacco; 8960 g ae/ha 2,4-D", "value": 9, "unit": "%"}, {"measurement": "Average % injury 14 DAT", "setting": "T1 AAD-1 (v3) tobacco; 35840 g ae/ha 2,4-D", "value": 32, "unit": "%"}]}]}
